Experimental data reported in ChEMBL document CHEMBL1681705, “Optimisation of ITK inhibitors through successive iterative design cycles” (Bioorg Med Chem Lett, 2011).

Columns and labels:
[1] = molecular target: Tyrosine-protein kinase SYK (Homo sapiens) (UniProt P43405); assay: Inhibition of Syk at 1 uM
[2] = molecular target: Angiopoietin-1 receptor (Homo sapiens) (UniProt Q02763); assay: Inhibition of Tie2 at 1 uM; values are per cent of control
[3] = molecular target: Epidermal growth factor receptor (Homo sapiens) (UniProt P00533); assay: Inhibition of EGFR at 0.1 uM; values are per cent of control
[4] = molecular target: T1, Serine/threonine-protein kinase Chk1 (Homo sapiens) (UniProt O14757); assay: Inhibition of CHK1 at 0.1 uM; values are per cent of control
T1 sequence (whole entry): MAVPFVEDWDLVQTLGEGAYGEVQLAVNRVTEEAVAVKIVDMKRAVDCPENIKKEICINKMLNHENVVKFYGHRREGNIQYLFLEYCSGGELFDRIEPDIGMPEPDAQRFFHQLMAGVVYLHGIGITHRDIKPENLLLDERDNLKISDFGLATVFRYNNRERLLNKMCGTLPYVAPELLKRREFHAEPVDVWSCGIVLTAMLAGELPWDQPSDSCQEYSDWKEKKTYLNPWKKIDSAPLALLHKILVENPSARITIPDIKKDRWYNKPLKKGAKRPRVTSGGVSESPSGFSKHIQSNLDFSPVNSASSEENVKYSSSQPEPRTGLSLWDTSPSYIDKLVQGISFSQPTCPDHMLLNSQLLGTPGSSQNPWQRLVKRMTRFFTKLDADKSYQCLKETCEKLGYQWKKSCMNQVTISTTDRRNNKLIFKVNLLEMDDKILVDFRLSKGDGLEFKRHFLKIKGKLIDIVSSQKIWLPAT

[5] = molecular target: T2, cGMP-dependent protein kinase 1 (Homo sapiens) (UniProt Q13976); assay: Inhibition of PKG1beta at 0.1 uM; values are per cent of control
T2 sequence (whole entry): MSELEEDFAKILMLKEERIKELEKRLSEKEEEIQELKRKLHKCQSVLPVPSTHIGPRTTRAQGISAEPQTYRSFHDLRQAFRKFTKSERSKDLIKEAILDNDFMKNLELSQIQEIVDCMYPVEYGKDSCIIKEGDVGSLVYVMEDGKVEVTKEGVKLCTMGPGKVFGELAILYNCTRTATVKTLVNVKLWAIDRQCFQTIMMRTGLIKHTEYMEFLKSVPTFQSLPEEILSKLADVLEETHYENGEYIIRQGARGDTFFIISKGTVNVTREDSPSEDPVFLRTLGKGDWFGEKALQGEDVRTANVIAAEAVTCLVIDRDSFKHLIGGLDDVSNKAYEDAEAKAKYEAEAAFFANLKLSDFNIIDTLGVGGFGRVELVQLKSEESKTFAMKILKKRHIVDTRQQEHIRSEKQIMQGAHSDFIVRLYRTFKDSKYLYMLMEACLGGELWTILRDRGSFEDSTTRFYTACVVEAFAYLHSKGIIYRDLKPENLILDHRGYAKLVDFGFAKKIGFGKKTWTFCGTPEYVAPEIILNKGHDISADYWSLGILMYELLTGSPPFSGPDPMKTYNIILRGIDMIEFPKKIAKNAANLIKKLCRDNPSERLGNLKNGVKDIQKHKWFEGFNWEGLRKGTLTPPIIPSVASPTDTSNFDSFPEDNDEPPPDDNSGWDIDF

[6] = molecular target: T3, Tyrosine-protein kinase ZAP-70 (Homo sapiens) (UniProt P43403); assay: Inhibition of ZAP70 at 0.1 uM; values are per cent of control
T3 sequence (whole entry): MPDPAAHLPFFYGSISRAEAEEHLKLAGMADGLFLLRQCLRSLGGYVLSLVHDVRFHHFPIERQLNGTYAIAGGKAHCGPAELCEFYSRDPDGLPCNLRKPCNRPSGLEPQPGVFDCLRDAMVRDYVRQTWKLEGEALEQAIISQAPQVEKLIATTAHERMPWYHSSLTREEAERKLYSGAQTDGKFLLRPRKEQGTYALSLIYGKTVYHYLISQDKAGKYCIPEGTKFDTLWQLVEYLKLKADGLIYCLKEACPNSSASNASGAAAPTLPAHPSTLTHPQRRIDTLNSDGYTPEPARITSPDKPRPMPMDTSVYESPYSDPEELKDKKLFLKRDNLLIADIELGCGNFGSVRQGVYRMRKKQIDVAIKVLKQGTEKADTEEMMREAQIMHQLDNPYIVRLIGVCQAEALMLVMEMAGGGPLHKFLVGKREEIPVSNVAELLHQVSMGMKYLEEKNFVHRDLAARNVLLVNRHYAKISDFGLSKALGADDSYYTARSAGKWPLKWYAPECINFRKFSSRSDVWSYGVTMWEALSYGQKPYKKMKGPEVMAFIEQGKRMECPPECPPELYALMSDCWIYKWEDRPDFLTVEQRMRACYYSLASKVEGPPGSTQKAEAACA

[7] = molecular target: T4, Serine/threonine-protein kinase Nek2 (Homo sapiens) (UniProt P51955); assay: Inhibition of NEK2 at 0.1 uM; values are per cent of control
T4 sequence (whole entry): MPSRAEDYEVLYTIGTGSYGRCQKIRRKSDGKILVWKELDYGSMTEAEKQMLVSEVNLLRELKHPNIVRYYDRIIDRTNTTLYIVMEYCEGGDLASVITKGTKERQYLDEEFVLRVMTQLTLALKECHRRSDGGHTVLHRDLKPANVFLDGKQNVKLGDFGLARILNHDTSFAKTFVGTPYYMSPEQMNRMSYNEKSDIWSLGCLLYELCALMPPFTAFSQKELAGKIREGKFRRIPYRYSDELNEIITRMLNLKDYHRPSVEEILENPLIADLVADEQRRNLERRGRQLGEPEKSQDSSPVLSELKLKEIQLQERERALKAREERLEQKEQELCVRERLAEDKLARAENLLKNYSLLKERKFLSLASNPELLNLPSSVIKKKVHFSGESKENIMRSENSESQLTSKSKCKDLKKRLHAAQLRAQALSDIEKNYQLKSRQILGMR

Angiopoietin-1 receptor (Homo sapiens), sequence (Q02763 whole entry): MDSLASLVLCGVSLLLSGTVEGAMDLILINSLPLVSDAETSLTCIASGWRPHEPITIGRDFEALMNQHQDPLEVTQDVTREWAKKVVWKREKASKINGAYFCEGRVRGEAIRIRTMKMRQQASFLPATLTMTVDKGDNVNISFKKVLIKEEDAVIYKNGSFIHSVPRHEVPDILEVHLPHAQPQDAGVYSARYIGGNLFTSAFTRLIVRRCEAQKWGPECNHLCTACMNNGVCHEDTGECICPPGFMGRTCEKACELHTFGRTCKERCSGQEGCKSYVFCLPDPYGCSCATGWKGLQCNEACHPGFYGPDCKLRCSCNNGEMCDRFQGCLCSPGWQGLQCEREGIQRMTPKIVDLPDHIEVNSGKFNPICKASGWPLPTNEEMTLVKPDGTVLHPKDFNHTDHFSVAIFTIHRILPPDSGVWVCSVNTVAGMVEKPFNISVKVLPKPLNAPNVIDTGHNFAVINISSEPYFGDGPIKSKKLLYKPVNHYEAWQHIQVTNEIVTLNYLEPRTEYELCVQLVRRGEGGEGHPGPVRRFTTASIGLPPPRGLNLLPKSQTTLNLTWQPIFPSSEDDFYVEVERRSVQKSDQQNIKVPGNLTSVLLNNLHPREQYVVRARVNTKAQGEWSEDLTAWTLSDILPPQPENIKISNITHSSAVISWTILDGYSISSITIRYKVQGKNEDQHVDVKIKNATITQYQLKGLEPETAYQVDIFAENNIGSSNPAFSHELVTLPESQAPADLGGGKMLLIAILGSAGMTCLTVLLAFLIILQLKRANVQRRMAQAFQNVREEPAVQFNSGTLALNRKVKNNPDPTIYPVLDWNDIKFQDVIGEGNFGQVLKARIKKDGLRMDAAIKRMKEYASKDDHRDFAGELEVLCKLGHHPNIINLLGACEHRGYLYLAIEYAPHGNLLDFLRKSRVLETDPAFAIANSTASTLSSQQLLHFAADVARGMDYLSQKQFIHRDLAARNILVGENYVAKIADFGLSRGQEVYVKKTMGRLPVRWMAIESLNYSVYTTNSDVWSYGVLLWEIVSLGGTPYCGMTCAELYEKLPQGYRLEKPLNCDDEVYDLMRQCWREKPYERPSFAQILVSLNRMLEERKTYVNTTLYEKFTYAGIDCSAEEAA
Epidermal growth factor receptor (Homo sapiens), sequence (P00533 whole entry): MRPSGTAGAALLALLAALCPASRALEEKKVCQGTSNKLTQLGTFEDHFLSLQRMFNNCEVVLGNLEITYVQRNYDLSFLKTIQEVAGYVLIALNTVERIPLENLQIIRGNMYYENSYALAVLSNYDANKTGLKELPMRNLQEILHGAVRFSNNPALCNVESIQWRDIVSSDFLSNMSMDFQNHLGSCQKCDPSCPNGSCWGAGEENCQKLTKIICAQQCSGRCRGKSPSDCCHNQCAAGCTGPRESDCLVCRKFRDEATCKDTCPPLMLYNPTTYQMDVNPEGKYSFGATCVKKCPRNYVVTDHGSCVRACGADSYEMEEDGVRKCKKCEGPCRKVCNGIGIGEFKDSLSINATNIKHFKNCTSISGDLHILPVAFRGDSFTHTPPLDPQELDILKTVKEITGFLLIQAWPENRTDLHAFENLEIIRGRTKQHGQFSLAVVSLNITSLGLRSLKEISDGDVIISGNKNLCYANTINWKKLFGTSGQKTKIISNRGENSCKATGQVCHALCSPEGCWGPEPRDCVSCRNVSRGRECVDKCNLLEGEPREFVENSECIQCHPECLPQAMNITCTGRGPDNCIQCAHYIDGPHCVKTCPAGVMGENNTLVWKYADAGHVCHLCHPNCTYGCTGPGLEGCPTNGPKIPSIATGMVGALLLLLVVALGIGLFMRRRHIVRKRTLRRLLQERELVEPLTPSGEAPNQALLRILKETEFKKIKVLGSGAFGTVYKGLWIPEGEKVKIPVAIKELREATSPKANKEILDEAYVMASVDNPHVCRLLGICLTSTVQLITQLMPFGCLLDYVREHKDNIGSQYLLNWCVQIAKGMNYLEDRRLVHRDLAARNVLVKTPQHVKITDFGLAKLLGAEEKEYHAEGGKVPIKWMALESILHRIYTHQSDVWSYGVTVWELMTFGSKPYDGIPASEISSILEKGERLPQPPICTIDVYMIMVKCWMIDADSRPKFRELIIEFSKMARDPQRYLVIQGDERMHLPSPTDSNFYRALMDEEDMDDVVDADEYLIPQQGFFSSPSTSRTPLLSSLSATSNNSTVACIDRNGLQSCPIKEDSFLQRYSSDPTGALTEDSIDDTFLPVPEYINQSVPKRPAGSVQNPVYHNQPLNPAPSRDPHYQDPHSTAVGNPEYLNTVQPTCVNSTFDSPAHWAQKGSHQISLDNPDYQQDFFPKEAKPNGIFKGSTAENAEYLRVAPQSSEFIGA

Row | inhibition [1] [%] | residual activity [2] [%] | residual activity [3] [%] | residual activity [4] [%] | residual activity [5] [%] | residual activity [6] [%] | residual activity [7] [%] | Structure (SMILES)
1 | -2 | 8 | 28 | 90 | 83 | 93 | 91 | Cc1ccc2cc(-c3n[nH]c4ccc(NC5CCN(Cc6ccccc6)CC5)cc34)[nH]c2c1
2 | 0 | 1 | 94 | 18 | 95 | 93 | 79 | Cc1ccc2cc(-c3n[nH]c4ccc(NC5CCNC5)cc34)[nH]c2c1 (centres undefined)
